This note sets out measurements from ChEMBL document CHEMBL5223172, “Development of fluorophore labeled or biotinylated anticancer small molecule NSC243928” (Bioorg Med Chem, 2023).

Activity calls are given as the source filed them. The calls are words filed in the database; no cut-off is given here.

In general, Kd refers to the concentration at which binding is half-saturated.

The target of data set [1] is T1, Lymphocyte antigen 6K (Homo sapiens) (UniProt Q17RY6).
T1 sequence (whole entry): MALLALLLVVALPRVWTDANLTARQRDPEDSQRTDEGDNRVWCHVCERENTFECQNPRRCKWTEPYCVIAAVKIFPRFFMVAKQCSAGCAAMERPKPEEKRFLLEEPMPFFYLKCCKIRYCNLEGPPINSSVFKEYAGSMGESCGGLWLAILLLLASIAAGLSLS
The data set is described as follows: Binding affinity to human wild type LY6K at 1.25 to 5 uM measured upto 250 sec by SPR assay. The following applies: dose 1.25-5 µM.

In a further data set the target is T2, Lymphocyte antigen 6K (Homo sapiens, UniProt Q17RY6).
T2 sequence (Q17RY6 whole entry): T1 sequence (whole entry)
Description: Binding affinity to human wild type LY6K assessed as dissociation constant measured upto 250 sec by SPR assay. (In general: Surface plasmon resonance follows binding to a sensor surface in real time, without labels.)

Data set [2] has as its target T1, Lymphocyte antigen 6K (Homo sapiens). The data set is described as follows: Inhibition of LY6K in human Hs-578T cells assessed as reduction in cell viability measured after 48 hrs by Cell titer blue assay. The data set is classed as cell-based. Conditions: dose 5-10 µM. (Alamar Blue is a resazurin reagent that responds to reducing activity.)
For another data set, the system named is Hs-578T. The data set is described as follows: Antiproliferative activity against human Hs-578T cells transfected with LY6K-shRNA assessed as reduction in cell viability at 5 to 10 uM measured after 48 hrs by Cell titer blue assay. The data set is classed as functional, cell-based. The following applies: dose 5-10 µM.
The nature of data set [3]: Drug uptake in human Serum starved Hs-578T cells assessed as drug localization in perinuclear region of cell at 2 uM measured after 2 hrs by DAPI staining based confocal microscopy. The class given is ADME.
Data set [4] can be described thus: Drug uptake in human Serum starved Hs-578T cells assessed as drug localization in cytoplasm of cell at 2 uM measured after 2 hrs by DAPI staining based confocal microscopy. The data set is classed as ADME.
Data set [5] in a line: Drug uptake in human Serum starved Hs-578T cells assessed as drug localization in membrane of the cell at 2 uM measured after 2 hrs by DAPI staining based confocal microscopy. The class given is ADME.

`CCS(=O)(=O)Nc1ccc(Nc2c3ccccc3nc3cc(C(=O)OCc4ccccc4)ccc23)c(OC)c1`: in data set [1], the outcome was Active.

With `CCS(=O)(=O)Nc1ccc(Nc2c3ccccc3nc3ccccc23)c(OC)c1`, the Kd at Lymphocyte antigen 6K came out at 4700 nM. For the same molecule, the Activity entry in data set [1] and in data set [2] was “Dose-Dependent Effect” in each case. Further, in the data set with Hs-578T, the result was inactive.

As to `CCS(=O)(=O)Nc1ccc(Nc2c3ccccc3nc3cc([N+](=O)[O-])ccc23)c(OC)c1`, the Activity result in data set [1] is “Dose-Dependent Effect”.

Consider `CCS(=O)(=O)Nc1ccc(Nc2c3ccccc3nc3cc(C(=O)NCCCCCCNc4ccc([N+](=O)[O-])c5nonc45)ccc23)c(OC)c1`, for which the Drug uptake result in data set [3], in data set [4] and in data set [5] was “Active” in each case. Further, the result in data set [1] was Active. Moreover, the Activity entry in data set [2] is “Dose-Dependent Effect”. Further, in the data set with Hs-578T, the result was inactive.

Regarding `CCS(=O)(=O)Nc1ccc(Nc2c3ccccc3nc3cc(NC(=O)CCCC[C@@H]4SC[C@@H]5NC(=O)N[C@@H]54)ccc23)c(OC)c1`, the outcome in data set [1] was Active.

`CCS(=O)(=O)Nc1ccc(Nc2c3ccccc3nc3cc(C(=O)NCCOCCOCCOCCOCCOCCOCCOCCNC(=O)CCCC[C@@H]4SC[C@@H]5NC(=O)N[C@@H]54)ccc23)c(OC)c1`: the equilibrium dissociation constant (Kd) at Lymphocyte antigen 6K is 300 nM. For the same molecule, the Activity entry in data set [2] was “Dose-Dependent Effect”. For the same molecule, the result in the data set with Hs-578T was inactive.
